From ChEMBL document CHEMBL5120944, “Neocucurbols A-H, Phomactin Diterpene Derivatives from the Marine-Derived Fungus Neocucurbitaria unguis-hominis FS685” (J Nat Prod, 2022)

Assays:
Format in all cases: toxicity, cell-based
[1] = Cytotoxicity against human SF-268 cells assessed as reduction in cell viability after 24 hrs by SRB assay
[2] = Cytotoxicity against human MCF7 cells assessed as reduction in cell viability after 24 hrs by SRB assay
[3] = Cytotoxicity against human HepG2 cells assessed as reduction in cell viability after 24 hrs by SRB assay
[4] = Cytotoxicity against human A549 cells assessed as reduction in cell viability after 24 hrs by SRB assay

Measured: IC50 at 24 h

CC1=CC[C@@H]2[C@@]3(C)CC[C@@]4(C)[C@H](C)CC(=O)[C@H]5[C@@]2(O[C@@H]3[C@]54O)[C@H]1O
> 10 µM: [1] | [2] | [3] | [4]

C[C@@H]1CC=C2[C@H]3[C@H](O)[C@@](C)(O)CC[C@@H]3[C@@](C)(O)CC[C@]1(C)[C@@H]2C
> 10 µM: [1] | [2] | [3] | [4]

C=C1CC[C@@]2(C)[C@H](C)CC=C([C@@H]3[C@@H]1CC[C@](C)(O)[C@H]3O)[C@H]2C
> 10 µM: [1] | [2] | [3] | [4]

CC1=CC[C@H]2[C@]3(O[C@H]4[C@]2(C)[C@@H](O)C[C@@]2(C)[C@H](C)CC=C3[C@@]42O)[C@H]1O
> 10 µM: [1] | [2] | [3] | [4]

C=C1CC[C@@]2(C)[C@H](C)C[C@@H]3O[C@]3([C@@H]3[C@@H]1CC[C@](C)(O)[C@H]3O)[C@H]2C
> 10 µM: [1] | [2] | [3] | [4]

CC1=CC[C@@H]2[C@@]3(C)CC[C@]4(C)C5=C([C@@H](O)C[C@H]4C)[C@@]2(O[C@H]53)[C@H]1O
> 10 µM: [1] | [2] | [3] | [4]

CC1=CC[C@@H]2[C@@]3(C)CC[C@@]4(C)[C@H](C)[C@@H](O)C=C5[C@@]2(O[C@@H]3[C@]54O)[C@H]1O
> 10 µM: [1] | [2] | [3] | [4]

C/C1=C/C[C@@]2(C)[C@H](C)CC=C([C@@H]3[C@@H]1CC[C@](C)(O)[C@H]3O)[C@H]2C
> 10 µM: [1] | [2] | [3] | [4]
